# Assay results reported in ChEMBL document CHEMBL1136902, “Binaphthyl scaffolded peptoids via ring-closing metathesis reactions and their anti-bacterial activities” (2009).
# Tested on: Staphylococcus aureus
# Experiment: Antibacterial activity against Staphylococcus aureus ATCC 6538
# Type: functional
row,Structure (SMILES),MIC
1,COC(=O)C1CC=CCOc2ccc(cc2)C[C@H](NC(C)=O)C(=O)N[C@@H](CCCNC(=N)N)C(=O)N1 (stereo partly specified),62.5 µg/mL
2,COC(=O)[C@@H]1C/C=C\COc2ccc3ccccc3c2-c2c(ccc3ccccc23)OCC(=O)N[C@H](CCCCNC(=N)N)C(=O)N1.Cl,8 µg/mL
3,COC(=O)C1CC=CCOc2ccc(cc2)C[C@H](NC(C)=O)C(=O)N[C@@H](CCCCN)C(=O)N1 (stereo partly specified),62.5 µg/mL
4,C=CCOc1ccc2ccccc2c1-c1c(OCC(=O)N[C@H](CCCCN)C(=O)OC)ccc2ccccc12.Cl,32 µg/mL
5,C=CCOc1ccc2ccccc2c1-c1c(OCC(=O)N[C@H](CCCCN)C(=O)N[C@H](CC=C)C(=O)OC)ccc2ccccc12.Cl,4 µg/mL
6,C=CCOc1ccc2ccccc2c1-c1c(OCC(=O)N[C@H](CCCCNC(=N)N)C(=O)N[C@H](CC=C)C(=O)OC)ccc2ccccc12.Cl,8 µg/mL
7,COC(=O)[C@H]1C/C=C/Cn2cc(c3ccccc32)CC(=O)N[C@H](CCCCN)C(=O)N1,125 µg/mL
8,COC(=O)C1C/C=C\COc2ccc(cc2)CC(NC(C)=O)C(=O)NC(CCCCNC(=N)N)C(=O)N1 (stereo unspecified),62.5 µg/mL
9,COC(=O)[C@@H]1C/C=C/Cc2ccc3c(c2)c2cc(ccc2n3C(=O)OC(C)(C)C)[C@H](NC(C)=O)C(=O)N[C@H](CCCCN)C(=O)N1,15 µg/mL
10,COC(=O)[C@H]1C/C=C/Cn2cc(c3ccccc32)CCC(=O)N[C@H](CCCCN)C(=O)N1,125 µg/mL
11,C=CCOc1ccc2ccccc2c1-c1c(OCCCC(=O)N[C@H](CCCCNC(=N)N)C(=O)N[C@H](CC=C)C(=O)OC)ccc2ccccc12.Cl,8 µg/mL
12,COC(=O)[C@H]1C/C=C/Cn2cc(c3ccccc32)CCCC(=O)N[C@H](CCCCN)C(=O)N1,125 µg/mL
13,C=CCOc1ccc2ccccc2c1-c1c(OCCCC(=O)N[C@H](CCCCN)C(=O)N[C@H](CC=C)C(=O)OC)ccc2ccccc12.Cl,15 µg/mL
14,CN[C@H](CC(C)C)C(=O)N[C@H]1C(=O)N[C@@H](CC(N)=O)C(=O)N[C@H]2C(=O)N[C@H]3C(=O)N[C@H](C(=O)N[C@H](C(=O)O)c4cc(O)cc(O)c4-c4cc3ccc4O)[C@H](O)c3ccc(c(Cl)c3)Oc3cc2cc(c3O[C@@H]2O[C@H](CO)[C@@H](O)[C@H](O)[C@H]2O[C@H]2C[C@](C)(N)[C@H](O)[C@H](C)O2)Oc2ccc(cc2Cl)[C@H]1O [VANCOMYCIN],1.95 µg/mL
15,COC(=O)[C@@H]1C/C=C/Cc2cc3ccccc3c(c2OC)-c2c(OC)c(cc3ccccc23)CC(NC(C)=O)C(=O)N[C@H](CCCCN)C(=O)N1 (stereo partly specified),7 µg/mL
16,COC(=O)[C@@H]1C/C=C\COc2ccc3ccccc3c2-c2c(ccc3ccccc23)OCC(=O)N[C@H](CCCCN)C(=O)N1.Cl,15 µg/mL
